In PubChem BioAssay AID248 (DTP/NCI, 2004):
“And” between values parts separate entries of the source, which are not always exact repeats. Identical values can stand only once. Inconclusive results and toxic doses are left out. Cut-off read from the data, not from the text of the source: active = T/C of 150% or more; inactive = T/C below 125%.

System: L1210 leukemia ip in BDF1 mice, survival T/C
Assay: NCI In Vivo Anticancer Drug Screen. Data for tumor model L1210 Leukemia (intraperitoneal) in B6D2F1 (BDF1) mice
Details: endpoint: mean survival time, higher = longer survival
Procedure, shortened: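 Each compound was tested against a transplantable tumor grown in mice. The endpoint was survival, with treated animals benchmarked against vehicle controls as a simple ratio.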

[1] = dose: 100.0 mg/kg/injection, schedule: Q01DX001 (ip), vehicle: carboxymethylcellulose (CMC)
[2] = dose: 200.0 mg/kg/injection, schedule: Q01DX001 (ip), vehicle: carboxymethylcellulose (CMC)
[3] = dose: 400.0 mg/kg/injection, schedule: Q01DX001 (ip), vehicle: carboxymethylcellulose (CMC)
[4] = dose: 100.0 mg/kg/injection, schedule: Q01DX009 (ip), vehicle: Klucel (hydroxypropylcellulose) (HPC)
[5] = dose: 200.0 mg/kg/injection, schedule: Q01DX009 (ip), vehicle: Klucel (hydroxypropylcellulose) (HPC)
[6] = dose: 400.0 mg/kg/injection, schedule: Q01DX009 (ip), vehicle: Klucel (hydroxypropylcellulose) (HPC)
[7] = dose: 100.0 mg/kg/injection, schedule: Q04DX003 (ip), vehicle: saline with Tween-80
[8] = dose: 200.0 mg/kg/injection, schedule: Q04DX003 (ip), vehicle: saline with Tween-80
[9] = dose: 400.0 mg/kg/injection, schedule: Q04DX003 (ip), vehicle: saline with Tween-80
[10] = dose: 100.0 mg/kg/injection, schedule: Q04DX003 (ip), vehicle: Klucel (hydroxypropylcellulose) (HPC)
[11] = dose: 200.0 mg/kg/injection, schedule: Q04DX003 (ip), vehicle: Klucel (hydroxypropylcellulose) (HPC)
[12] = dose: 400.0 mg/kg/injection, schedule: Q04DX003 (ip), vehicle: Klucel (hydroxypropylcellulose) (HPC)
[13] = dose: 100.0 mg/kg/injection, schedule: Q01DX009 (ip), vehicle: saline sonified
[14] = dose: 200.0 mg/kg/injection, schedule: Q01DX009 (ip), vehicle: saline sonified
[15] = dose: 400.0 mg/kg/injection, schedule: Q01DX009 (ip), vehicle: saline sonified
[16] = dose: 100.0 mg/kg/injection, schedule: Q01DX009 (ip), vehicle: saline with Tween-80
[17] = dose: 100.0 mg/kg/injection, schedule: Q01DX001 (ip), vehicle: Klucel (hydroxypropylcellulose) (HPC)
[18] = dose: 200.0 mg/kg/injection, schedule: Q01DX001 (ip), vehicle: Klucel (hydroxypropylcellulose) (HPC)
[19] = dose: 400.0 mg/kg/injection, schedule: Q01DX001 (ip), vehicle: Klucel (hydroxypropylcellulose) (HPC)
[20] = dose: 100.0 mg/kg/injection, schedule: Q01DX009 (ip), vehicle: saline
[21] = dose: 100.0 mg/kg/injection, schedule: Q04DX003 (ip), vehicle: saline
[22] = dose: 200.0 mg/kg/injection, schedule: Q01DX009 (ip), vehicle: saline
[23] = dose: 200.0 mg/kg/injection, schedule: Q04DX003 (ip), vehicle: saline
[24] = dose: 400.0 mg/kg/injection, schedule: Q01DX009 (ip), vehicle: saline
[25] = dose: 400.0 mg/kg/injection, schedule: Q04DX003 (ip), vehicle: saline

Measured: T/C

O=C(O)CC1(C(=O)O)CC2C=CC1C2 (configuration not stated)
inactive: [1] 97 % of control and 105 % of control | dose: 100.0 mg/kg/injection, schedule: Q04DX002 (ip), vehicle: carboxymethylcellulose (CMC) 97 % of control and 98 % of control | dose: 100.0 mg/kg/injection, schedule: Q04DX003 (ip), vehicle: carboxymethylcellulose (CMC) 95 % of control and 97 % of control | [2] 97 % of control and 91 % of control | dose: 200.0 mg/kg/injection, schedule: Q04DX002 (ip), vehicle: carboxymethylcellulose (CMC) 97 % of control and 90 % of control | dose: 200.0 mg/kg/injection, schedule: Q04DX003 (ip), vehicle: carboxymethylcellulose (CMC) 97 % of control and 87 % of control | [3] 99 % of control and 103 % of control | dose: 400.0 mg/kg/injection, schedule: Q04DX002 (ip), vehicle: carboxymethylcellulose (CMC) 87 % of control and 90 % of control | dose: 400.0 mg/kg/injection, schedule: Q04DX003 (ip), vehicle: carboxymethylcellulose (CMC) 94 % of control and 90 % of control

CCCCCCCCn1nnnc1-c1nnn(C)n1
inactive: [4] 106 % of control | [5] 104 % of control | [6] 101 % of control

C(#Cc1ccccc1)COCC1CO1 (configuration not stated)
inactive: dose: 50.0 mg/kg/injection, schedule: Q04DX003 (ip), vehicle: saline with Tween-80 95 % of control | [7] 98 % of control | [8] 91 % of control

O=C(O)C(CCCCC1CCCCC1)CCC1CCCCC1 (configuration not stated)
inactive: dose: 100.0 mg/kg/injection, schedule: Q01DX001 (ip), vehicle: saline with Tween-80 97 % of control | dose: 200.0 mg/kg/injection, schedule: Q01DX001 (ip), vehicle: saline with Tween-80 99 % of control | dose: 400.0 mg/kg/injection, schedule: Q01DX001 (ip), vehicle: saline with Tween-80 94 % of control

c1cc2c(cc1C1=NNC(c3ccc4c(c3)OCO4)=NN1)OCO2
inactive: [7] 104 % of control | [8] 98 % of control | [9] 96 % of control

CC(C)C1CCC(C(=O)O)CC1 (configuration not stated)
inactive: [4] 102 % of control | [10] 96 % of control | [5] 95 % of control | [11] 100 % of control | [6] 97 % of control | [12] 103 % of control

Cc1ccc2c(c1)Sc1ccc3ccccc3c1N2
inactive: [13] 104 % of control | [10] 97 % of control | [14] 88 % of control | [11] 89 % of control | [15] 100 % of control | [12] 92 % of control

S=c1nn[nH]n1C1CCCCC1
inactive: dose: 25.0 mg/kg/injection, schedule: Q01DX009 (ip), vehicle: saline with Tween-80 92 % of control | dose: 50.0 mg/kg/injection, schedule: Q01DX009 (ip), vehicle: saline with Tween-80 88 % of control | [16] 90 % of control | [7] 103 % of control | [9] 87 % of control

CC(=O)Nc1ccc(OCCOc2cccc(C)c2)cc1
inactive: [17] 103 % of control | [18] 100 % of control | [19] 105 % of control

CCOC(=O)C(Br)c1cccc(OC)c1 (configuration not stated)
inactive: [13] 107 % of control | dose: 100.0 mg/kg/injection, schedule: Q04DX003 (ip), vehicle: saline sonified 117 % of control | dose: 132.0 mg/kg/injection, schedule: Q04DX003 (ip), vehicle: saline sonified 104 % of control | [14] 96 % of control | dose: 200.0 mg/kg/injection, schedule: Q04DX003 (ip), vehicle: saline sonified 96 % of control | dose: 300.0 mg/kg/injection, schedule: Q04DX003 (ip), vehicle: saline sonified 89 % of control | [15] 98 % of control | dose: 400.0 mg/kg/injection, schedule: Q04DX003 (ip), vehicle: saline sonified 106 % of control

CCCCCCCCCCCCCC[n+]1cccc(C#N)c1
inactive: dose: 10.0 mg/kg/injection, schedule: Q01DX001 (ip), vehicle: saline 100 % of control | dose: 10.0 mg/kg/injection, schedule: Q04DX003 (ip), vehicle: saline 93 % of control | dose: 20.0 mg/kg/injection, schedule: Q01DX001 (ip), vehicle: saline 100 % of control | dose: 20.0 mg/kg/injection, schedule: Q04DX003 (ip), vehicle: saline 93 % of control | dose: 40.0 mg/kg/injection, schedule: Q01DX001 (ip), vehicle: saline 97 % of control | dose: 40.0 mg/kg/injection, schedule: Q04DX003 (ip), vehicle: saline 86 % of control

CC(C)C(Br)C(=O)NCC(=O)NCC(=O)O (configuration not stated)
inactive: [16] 93 % of control | dose: 200.0 mg/kg/injection, schedule: Q01DX009 (ip), vehicle: saline with Tween-80 94 % of control | dose: 400.0 mg/kg/injection, schedule: Q01DX009 (ip), vehicle: saline with Tween-80 92 % of control

COC(=O)C1=C(C(=O)OC)C2C=CC1C1(C)NC(=O)C21C (configuration not stated)
inactive: dose: 100.0 mg/kg/injection, schedule: Q04DX002 (ip), vehicle: Klucel (hydroxypropylcellulose) (HPC) 94 % of control | dose: 200.0 mg/kg/injection, schedule: Q04DX002 (ip), vehicle: Klucel (hydroxypropylcellulose) (HPC) 91 % of control | dose: 400.0 mg/kg/injection, schedule: Q04DX002 (ip), vehicle: Klucel (hydroxypropylcellulose) (HPC) 97 % of control

Cn1c[n+](C)cc1C(=O)[O-]
inactive: [20] 91 % of control | [21] 97 % of control | [22] 97 % of control | [23] 102 % of control | [24] 95 % of control | [25] 109 % of control

COc1ccc(/C=C2/CSC/C(=C/c3ccc(OC)c(OC)c3)C2=O)cc1OC
inactive: [21] 103 % of control | [22] 86 % of control | [23] 94 % of control | [25] 94 % of control

O=C(COc1ccc(Cl)c(Cl)c1)NCc1ccc[n+](Cc2cc(Cl)ccc2S(=O)(=O)F)c1
inactive: [7] 101 % of control | [8] 114 % of control | [9] 88 % of control

O=C(ONC(=O)[C@@H]1CCCC[C@H]1C(=O)NOC(=O)c1ccccc1)c1ccccc1
inactive: dose: 50.0 mg/kg/injection, schedule: Q01DX001 (ip), vehicle: Klucel (hydroxypropylcellulose) (HPC) 97 % of control | dose: 50.0 mg/kg/injection, schedule: Q01DX009 (ip), vehicle: Klucel (hydroxypropylcellulose) (HPC) 92 % of control | [17] 97 % of control | [4] 92 % of control | [18] 97 % of control | [5] 103 % of control | [19] 96 % of control | [6] 97 % of control

Brc1cc(Br)c2[nH]c(-c3ccccc3)cc2c1
inactive: [1] 95 % of control | [2] 90 % of control | [3] 88 % of control

O=C1OC2(CCCCC2)c2ccccc21
inactive: [10] 105 % of control | [11] 95 % of control | [12] 105 % of control

CCCCCCCCCCC(=O)[O][Hg][c]1ccccc1
inactive: dose: 9.38 mg/kg/injection, schedule: Q01DX001 (ip), vehicle: saline 98 % of control | dose: 18.75 mg/kg/injection, schedule: Q01DX001 (ip), vehicle: saline 93 % of control

CCOC(=O)c1ccc(NCC(C)(C)[N+](=O)[O-])cc1
inactive: [20] 102 % of control | [21] 95 % of control | [22] 105 % of control | [23] 107 % of control | [24] 96 % of control and 105 % of control | [25] 91 % of control

O=C(SCO)c1ccccc1
inactive: dose: 100.0 mg/kg/injection, schedule: Q01DX009 (sc), vehicle: olive oil, sesame oil, peanut oil 108 % of control | dose: 100.0 mg/kg/injection, schedule: Q04DX003 (sc), vehicle: olive oil, sesame oil, peanut oil 107 % of control | dose: 200.0 mg/kg/injection, schedule: Q01DX009 (sc), vehicle: olive oil, sesame oil, peanut oil 96 % of control | dose: 200.0 mg/kg/injection, schedule: Q04DX003 (sc), vehicle: olive oil, sesame oil, peanut oil 96 % of control | dose: 400.0 mg/kg/injection, schedule: Q01DX009 (sc), vehicle: olive oil, sesame oil, peanut oil 103 % of control | dose: 400.0 mg/kg/injection, schedule: Q04DX003 (sc), vehicle: olive oil, sesame oil, peanut oil 93 % of control
